In assay [1] the test system is H. pylori cells (strain 60190). Nature of the assay: Motility assay in soft agar. It counts as cell-based, Helicobacter pylori. To be noted: for H. pylori motility (swarming) versus concentration: niclosamide from 0.10 to 0.20 μg/mL (75-200 ng/mL in soft agar).
Assay [2] deals with H. Pylori 49503. Nature of the assay: Broth microdilution assay, MIC. The settings on record: Helicobacter pylori; strain H. Pylori 49503. It counts as cell-based.
Assay [3] has as its system H. pylori infection. As to the kind of experiment: Galleria mellonella in vivo infection model. The settings on record: 25 mg/kg, injected 2 hours after H. pylori inoculation. As for the experimental part:
Assays were performed as described by Giannouli et al. (BMC Microbiol. 2014 Aug. 27; 14:228), an alternative model host for the evaluation of antimicrobial agents against H. pylori infection. Twelve randomly selected G. mellonella larvae (Vanderhorst, Inc., St. Mary's, OH, USA) between 300-350 mg were used for each group in the experiment. H. pylori cells were washed with PBS and diluted to OD600 nm=0.3, before inoculation into G. mellonella larvae. A 10 μL inoculum was injected into the last left proleg using a 10 μL Hamilton syringe. After 2 hours, compounds were administered at into the last right proleg and the wax moths were incubate at 37° C. Niclosamide was administered at a concentration of 25 mg/kg. Clarithromycin administered at a concentration of 10 mg/kg was used as a comparator. Three control groups were included (1) injected with PBS only; (2) inoculated with H. pylori but treated with sham injections; and (3) no manipulation. G. mellonella survival was evaluated up to 120 hours. The surviving larvae were monitored every 24 hours and were considered dead if they were unresponsive to external stimuli (touch). Killing curves and differences in survival were analysed by the Kaplan-Meier method using GraphPad Prism version 6.04 (GraphPad Software, La Jolla, Calif., USA). Statistical analysis (Kruskal-Wallis test) was carried out using the same program.

Assay [4] has as its system H. pylori bacteria (strain 60190). As to the kind of experiment: Time to kill assay. It counts as cell-based, Helicobacter pylori. The settings on record: 4×MIC (1 μg/mL); 10^9 cells/mL. As for the experimental part:
Niclosamide was therefore tested time to kill assays were used to confirm the killing properties of niclosamide against H. pylori. Agar grown H. pylori bacteria (strain 60190) were suspended in fresh Mueller Hinton Broth (MHB) with 10% Fetal bovine serum (FBS) to a density of 10^9 cells/mL and placed into 10 mL tubes (BD Biosciences). […] Aliquots were periodically drawn from the tubes, serially diluted and plated onto Brucella agar (BD Biosciences) supplemented with 10% FBS. CFUs were counted after a 3-day incubation and assays were carried out in duplicate. […] Of note, clarithromycin, a commonly prescribed antibiotic for H. pylori treatment, is also bacteriostatic (De Francesco et al. World journal of gastrointestinal pathophysiology 2, 35 (2011)).

For assay [5], the system named is H. pylori strain 60190. As to the kind of experiment: Minimum bactericidal concentration (plating from MIC assay). It counts as cell-based, Helicobacter pylori. To be noted: Helicobacter pylori; H. pylori strain 60190; read-out: MBC.
Assay [6] deals with IL-8 secretion from MKN-28 cells co-cultured with H. pylori. As to the kind of experiment: IL-8 secretion, real-time RT-PCR. Type of assay: cell-based. To be noted: 4×MIC, 1.0 μg/mL, 24 hour incubation, H. pylori infected MKN-28 cells. As for the experimental part: Real-Time (RT-PCR) was carried out to determine whether niclosamide has an inhibitory role in IL-8 secretion. MKN-28 cells were co-cultured with H. pylori (MOI=100) in the presence or absence of a test compound. At 24 hours, RNA was isolated from the infected host cells. cDNA was synthesized using the Verso cDNA (Invitrogen) synthesis kit according to manufacturer instructions. Quantitative real-time reactions were carried out in a Bio-Rad iTaq universal SYBR (Bio-Rad, Hercules, Calif. USA) one-step kit and a CFX98 real-time PCR cycler as described by Zheng et al. (Future Med. Chem. 2018, February; 10(3):283-296). The relative gene expression was calculated from Cq values using a ΔΔCq method.

Assay [7] concerns H. pylori bacteria. Nature of the assay: Scanning electron microscopy of morphology. Type of assay: cell-based, Helicobacter pylori. To be noted: 2 hours.
Assay [8] relates to H. pylori (strain 60190). As to the kind of experiment: Effect of pH on MIC (broth microdilution). Type of assay: cell-based, Helicobacter pylori. As for the experimental part: The pH was adjusted to acidic condition with 1 N HCl. The minimal bactericidal concentration (MBC) was determined by plating 5 μL of broth culture from the MIC assay onto Müller-Hinton agar (BD Biosciences) supplemented with 10% FBS. After 72 h, the lowest concentration at which colonies were not observed was reported as the MBC.

Consider one compound from patent publication US11419834B2, “Methods for treating diseases or infections caused by or associated with H. pylori using a halogenated salicylanilide” (Rhode Island Hospital, priority 2019, dated 2022).

Converted amounts (≈) assume the structure as drawn.

Take `O=C(Nc1ccc([N+](=O)[O-])cc1Cl)c1cc(Cl)ccc1O` [Niclosamide, niclosamide]: the entries for the “H. pylori motility (swarming) versus concentration” value in assay [1] and in assay [1] (listed as niclosamide) were “impeded H. Pylon swarming movement in a dose-dependent manner” and “decreased in a dose-dependent manner”, respectively. Besides, in assay [1] (sub-MIC (0.2 μg/mL)), the H. pylori motility entry is listed as “abated”. Further, the MIC in assay [2] was 0.25 µg/mL (≈ 0.764 µM); in assay [8] (Helicobacter pylori, acidic pH, tested between pH 7.0 to 5.2, read-out: MIC in low pH), 0.25 µg/mL (≈ 0.764 µM). In assay [3], the “survival of wax-moth larvae up to 120 hours” value is “About 60%”. Besides, in assay [4], the “killing kinetics (bacteriostatic or bactericidal)” value is “bacteriostatic”. Moreover, the MBC in assay [5] turned out to be 0.5 µg/mL (≈ 1.53 µM). Besides, in assay [6], the “effect on IL-8 secretion” value was “inhibited IL-8 secretion”. For the same compound, the “morphology (helical shape) by SEM” value in assay [7] (1× MIC) is reported as “shortened”. Moreover, in assay [7] (4× and 8× MIC), the “morphology by SEM” value was “Cocco-bacillary”. Also, the “effect on bacterial flagella by SEM” value in assay [7] (niclosamide treatment) is “flagellar deformation”. The “change of MIC at acidic pH compared to pH 7.0” value in assay [8] (pH 7.0 to 5.2) is recorded as “remained the same”.
